biological target: T1, human Edg-1 (S1P1) (Homo sapiens, UniProt P21453); assay: S1P1 binding inhibition test (membrane, [33P]-S1P); conditions: compound 10 μM; [33P]-S1P 0.1 nM; human Edg-1 (S1P1) HEK-293 membrane fraction; read-out: Binding test (membrane) % inhibition (10 μM)
T1 construct: expressed in transfected cells; host or cells: HEK-293
Procedure: The membrane fraction was obtained by treating the cells with a solubilizing buffer (1 mM Tris/HCl, pH 7.2) for 10 minutes on ice, centrifuging at 1000×g for 5 minutes to remove insoluble fractions, and then centrifuging at 40000×g for 30 minutes at 4° C. The resulting membrane fraction was dissolved in a binding buffer (20 mM Tris-HCl, pH 7.4, 100 mM NaCl, 15 mM NaF, 2 mM deoxypyridoxine, 4 mg/mL fatty acid-free BSA), and then [^33P]-S1P (manufactured by ARC, final concentration 0.1 nM) and a DMSO solution (final concentration of the compound 10^−5 M, final concentration of DMSO 0.1%) of the test compound were added. Thereafter, the mixture was stirred and then treated for one hour at 30° C. Using a harvester, the membrane fraction was harvested onto unifilter-96 GF/C filter (manufactured by Perkin Elmer), washing was carried out four times with the binding buffer, and the filter was dried. Twenty five μL Microscint 0 (manufactured by Perkin Elmer) was added, and radioactivity was measured using Top Count NXT (manufactured by Packard) to calculate the amount (A) of [^33P]-S1P bound to the membrane fraction at the time when the compound was added.
The same procedure was carried out in the absence of the test compound, and the amount (B) of [^33P]-S1P bound was calculated. Further, the same procedure was carried out in the absence of the test compound by use of HEK-293 cells to which no Edg-1 (S1P1) gene was introduced, and the background amount (C) of [^33P]-S1P bound was calculated.
Inhibition rate (%)=[1−(A−C)/(B−C)]×100.
Moreover, the concentration required for a test compound to produce 50% inhibition of the binding caused in the absence of the test compound was also calculated (IC50). The above membrane system binding test was performed in the presence of a test compound at various concentrations to calculate the inhibition rate of Edg-1(S1P1) binding at each concentration according to the above equation, followed by calculating an IC50 value for each compound with data analysis software, Origin (Lightstone Corp., Japan).

T1 sequence (P21453 whole entry): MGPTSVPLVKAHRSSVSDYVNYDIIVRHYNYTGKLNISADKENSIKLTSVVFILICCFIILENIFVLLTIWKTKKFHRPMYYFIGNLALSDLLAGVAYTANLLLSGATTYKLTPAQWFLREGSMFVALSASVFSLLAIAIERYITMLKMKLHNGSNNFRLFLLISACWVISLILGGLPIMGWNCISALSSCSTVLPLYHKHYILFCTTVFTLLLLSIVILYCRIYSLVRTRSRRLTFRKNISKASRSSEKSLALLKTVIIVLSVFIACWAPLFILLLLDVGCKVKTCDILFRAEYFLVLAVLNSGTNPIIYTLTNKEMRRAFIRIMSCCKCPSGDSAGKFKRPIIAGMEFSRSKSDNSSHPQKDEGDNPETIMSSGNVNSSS

First: CCn1c(C(C)NS(=O)(=O)c2ccc(Cl)c(Cl)c2)cnc1Oc1ccc(Cl)cc1 (stereo not drawn) [Compound 189, 3,4-Dichloro-N-{1-[3-ethyl-2-(4-chlorophenoxy)-3H-imidazol-4-yl]-ethyl}-benzenesulfonamide]
Second: CCn1c(C(C)NS(=O)(=O)c2ccc(Cl)c(Cl)c2)cnc1Oc1ccc(C)cc1 (stereo not drawn) [Compound 74, 3,4-Dichloro-N-[1-(3-ethyl-2(4-methylphenoxy)-3H-imidazol-4-yl)-ethyl]-benzenesulfonamide]
The inhibition at 10 µM of the first is lower: 97.2% for the first, 101% for the second.

Going from `CCn1c(C(C)NS(=O)(=O)c2ccc(Br)cc2C)cnc1Oc1ccc(C)cc1` (stereo not drawn) [Compound 88] to `CCn1c(C(C)NS(=O)(=O)c2ccc(Br)cc2Cl)cnc1Oc1ccc(C)cc1` (stereo not drawn) [Compound 130], the inhibition at 10 µM rises from 74.2% to 77.5%.

First: CCn1c(C(C)NS(=O)(=O)c2ccc(F)cc2F)cnc1Oc1ccc(C)cc1 (stereo not drawn) [Compound 80]
Second: CCn1c(C(C)NS(=O)(=O)c2ccc(Cl)cc2F)cnc1Oc1ccc(C)cc1 (stereo not drawn) [Compound 120]
The inhibition at 10 µM of the first is lower: 61.2% for the first, 81.2% for the second.

First: CCn1c(C(C)NS(=O)(=O)c2cc(F)cc(Cl)c2C)cnc1Oc1ccc(C)cc1 (stereo not drawn) [Compound 86]
Second: CCn1c(C(C)NS(=O)(=O)c2cc(F)c(Cl)cc2F)cnc1Oc1ccc(C)cc1 (stereo not drawn) [Compound 96]
The inhibition at 10 µM of the first is lower: 74.4% for the first, 80.4% for the second.

First: CCn1c(C(C)NS(=O)(=O)c2ccc(-c3ccno3)s2)cnc1Oc1ccc(C)cc1 (stereo not drawn) [Compound 111]
Second: CCn1c(C(C)NS(=O)(=O)c2ccc(Cl)cc2)cnc1Oc1ccc(C)cc1 (stereo not drawn) [Compound 11]
The inhibition at 10 µM of the first is lower: 59.6% for the first, 103% for the second.

First: CCn1c(C(C)NS(=O)(=O)c2cccc3nsnc23)cnc1Oc1ccc(C)cc1 (stereo not drawn) [Compound 146]
Second: CCn1c(C(C)NS(=O)(=O)c2ccc3nsnc3c2)cnc1Oc1ccc(C)cc1 (stereo not drawn) [Compound 147]
The inhibition at 10 µM of the first is lower: 57.8% for the first, 73.2% for the second.

First: CCn1c(C(C)NS(=O)(=O)c2cc(F)c(Br)cc2F)cnc1Oc1ccc(C)cc1 (stereo not drawn) [Compound 67]
Second: CCn1c(C(C)NS(=O)(=O)c2cc(F)c(F)cc2Cl)cnc1Oc1ccc(C)cc1 (stereo not drawn) [Compound 93]
The inhibition at 10 µM of the first is higher: 84.6% for the first, 75.2% for the second.

Compared with `CCn1c(C(C)NS(=O)(=O)c2ccc(C#N)cc2)cnc1Oc1ccc(C)cc1` (stereo not drawn) [Compound 76], `CCn1c(C(C)NS(=O)(=O)c2ccc(C)cc2)cnc1Oc1ccc(C)cc1` (stereo not drawn) [Compound 35] is higher in inhibition at 10 µM: 89.3% for the first, 98.1% for the second.

Compared with `CCn1c(C(C)NS(=O)(=O)c2c(Cl)cc(Cl)cc2Cl)cnc1Oc1ccc(C)cc1` (stereo not drawn) [Compound 78], `CCn1c(C(C)NS(=O)(=O)c2c(Cl)cccc2Cl)cnc1Oc1ccc(C)cc1` (stereo not drawn) [Compound 18] is higher in inhibition at 10 µM: 66.7% for the first, 72.8% for the second.

Compared with `CCn1c(C(C)NS(=O)(=O)c2cc(F)c(F)c(F)c2)cnc1Oc1ccc(C)cc1` (stereo not drawn) [Compound 121], `CCn1c(C(C)NS(=O)(=O)c2ccc(F)c(F)c2F)cnc1Oc1ccc(C)cc1` (stereo not drawn) [Compound 90] is lower in inhibition at 10 µM: 101% for the first, 78.6% for the second.

First: CCn1c(C(C)NS(=O)(=O)c2cc(C(F)(F)F)cc(C(F)(F)F)c2)cnc1Oc1ccc(C)cc1 (stereo not drawn) [Compound 62]
Second: CCn1c(C(C)NS(=O)(=O)c2cccc(C(F)(F)F)c2)cnc1Oc1ccc(C)cc1 (stereo not drawn) [Compound 37]
The inhibition at 10 µM of the first is lower: 85.6% for the first, 98.5% for the second.

Compared with `CCn1c(C(C)NS(=O)(=O)c2cc(C)c(Cl)cc2C)cnc1Oc1ccc(C)cc1` (stereo not drawn) [Compound 16], `CCn1c(C(C)NS(=O)(=O)c2cc(C)cc(C)c2)cnc1Oc1ccc(C)cc1` (stereo not drawn) [Compound 115] is lower in inhibition at 10 µM: 109% for the first, 92.9% for the second.

Going from `CCn1c(C(C)NS(=O)(=O)c2ccc(Br)c(C)c2)cnc1Oc1ccc(C)cc1` (stereo not drawn) [Compound 122] to `CCn1c(C(C)NS(=O)(=O)c2cccc(Cl)c2)cnc1Oc1ccc(C)cc1` (stereo not drawn) [Compound 84], the inhibition at 10 µM falls from 100% to 72.4%.

First: CCn1c(C(C)NS(=O)(=O)c2c(F)cccc2F)cnc1Oc1ccc(C)cc1 (stereo not drawn) [Compound 103]
Second: CCn1c(C(C)NS(=O)(=O)c2cccc(Cl)c2F)cnc1Oc1ccc(C)cc1 (stereo not drawn) [Compound 135]
The inhibition at 10 µM of the first is lower: 53% for the first, 83.4% for the second.

First: CCn1c(C(C)NS(=O)(=O)c2ccc(F)c(C#N)c2)cnc1Oc1ccc(C)cc1 (stereo not drawn) [Compound 114]
Second: CCn1c(C(C)NS(=O)(=O)c2ccc(OC)c(OC)c2)cnc1Oc1ccc(C)cc1 (stereo not drawn) [Compound 19]
The inhibition at 10 µM of the first is higher: 96.8% for the first, 87.3% for the second.

Compared with `CCn1c(C(C)NS(=O)(=O)c2cc(C(F)(F)F)ccc2Cl)cnc1Oc1ccc(C)cc1` (stereo not drawn) [Compound 104], `CCn1c(C(C)NS(=O)(=O)c2ccc(C(F)(F)F)cc2Br)cnc1Oc1ccc(C)cc1` (stereo not drawn) [Compound 124] is lower in inhibition at 10 µM: 70.9% for the first, 65.6% for the second.

Going from `CCn1c(C(C)NS(=O)(=O)c2cc(Cl)cc(Cl)c2)cnc1Oc1ccc(C)cc1` (stereo not drawn) [Compound 63] to `CCn1c(C(C)NS(=O)(=O)c2ccc(Cl)c(Cl)c2Cl)cnc1Oc1ccc(C)cc1` (stereo not drawn) [Compound 57], the inhibition at 10 µM rises from 95.3% to 103%.

Going from `CCn1c(C(C)NS(=O)(=O)c2ccc(Cl)c(Cl)c2)cnc1Oc1cccc(N2CCN(C)CC2)c1` (stereo not drawn) [Compound 184, 3,4-Dichloro-N-(1-{3-ethyl-2-[3-(4-methylpiperazin-1-yl)-phenoxy]-3H-imidazol-4-yl}-ethyl)-benzenesulfonamide] to `CCn1c(C(C)NS(=O)(=O)c2ccc(Cl)c(Cl)c2)cnc1Oc1cccc(NS(C)(=O)=O)c1` (stereo not drawn) [Compound 234, 3,4-Dichloro-N-{1-[3-ethyl-2-(3-methanesulfonylaminophenoxy)-3H-imidazol-4-yl]-ethyl}-benzenesulfonamide], the inhibition at 10 µM rises from 95.3% to 98.1%.

Going from `CCn1c(C(C)NS(=O)(=O)c2ccc(Cl)c(Cl)c2)cnc1OCCCN1CCN(C)CC1` (stereo not drawn) [Compound 251] to `CCn1c(C(C)NS(=O)(=O)c2ccc3c(c2)OCCO3)cnc1Oc1ccc(C)cc1` (stereo not drawn) [Compound 144], the inhibition at 10 µM falls from 96.3% to 94.1%.

First: CCn1c(C(C)NS(=O)(=O)c2ccc(OC(F)(F)F)cc2)cnc1Oc1ccc(C)cc1 (stereo not drawn) [Compound 39]
Second: CCn1c(C(C)NS(=O)(=O)c2ccc(C(F)(F)F)cc2)cnc1Oc1ccc(C)cc1 (stereo not drawn) [Compound 44]
The inhibition at 10 µM of the first is lower: 64.8% for the first, 93.5% for the second.

First: CCn1c(C(C)NS(=O)(=O)c2csc3ccccc23)cnc1Oc1ccc(C)cc1 (stereo not drawn) [Compound 178]
Second: CCn1c(C(C)NS(=O)(=O)c2ccccc2C)cnc1Oc1ccc(C)cc1 (stereo not drawn) [Compound 38]
The inhibition at 10 µM of the first is lower: 64.2% for the first, 79.8% for the second.

First: CCn1c(C(C)NS(=O)(=O)c2ccc(C(=O)OC)n2C)cnc1Oc1ccc(C)cc1 (stereo not drawn) [Compound 51]
Second: CCc1ccc(OC)c(S(=O)(=O)NC(C)c2cnc(Oc3ccc(C)cc3)n2CC)c1 (stereo not drawn) [Compound 166]
The inhibition at 10 µM of the first is higher: 93.7% for the first, 80.7% for the second.

Compared with `CCn1c(C(C)NS(=O)(=O)c2cc(C)oc2C(F)(F)F)cnc1Oc1ccc(C)cc1` (stereo not drawn) [Compound 143], `CCn1c(C(C)NS(=O)(=O)c2ccc(Br)cc2OC(F)(F)F)cnc1Oc1ccc(C)cc1` (stereo not drawn) [Compound 10] is higher in inhibition at 10 µM: 58.8% for the first, 68.6% for the second.

Compared with `CCn1c(C(C)NS(=O)(=O)c2cc(Cl)ccc2OC)cnc1Oc1ccc(C)cc1` (stereo not drawn) [Compound 107], `CCn1c(C(C)NS(=O)(=O)c2ccc(OC)cc2)cnc1Oc1ccc(C)cc1` (stereo not drawn) [Compound 23] is higher in inhibition at 10 µM: 79.8% for the first, 98.6% for the second.

Compared with `CCn1c(C(C)NS(=O)(=O)c2ccccc2)cnc1Oc1ccc(C)cc1` (stereo not drawn) [Compound 4], `CCn1c(C(C)NS(=O)(=O)c2ccc(S(C)(=O)=O)cc2)cnc1Oc1ccc(C)cc1` (stereo not drawn) [Compound 25] is lower in inhibition at 10 µM: 72.8% for the first, 62% for the second.

`CCn1c(C(C)NS(=O)(=O)c2c(C)cc(OC)c(C)c2C)cnc1Oc1ccc(C)cc1` (stereo not drawn) [Compound 68] gave an inhibition at 10 µM of 64.7%.

same assay, conditions: membrane system binding test, various concentrations

`CCn1c(C(C)NS(=O)(=O)c2ccc(Cl)c(Cl)c2)cnc1Oc1ccc(Cl)cc1` (stereo not drawn) [Compound 189, 3,4-Dichloro-N-{1-[3-ethyl-2-(4-chlorophenoxy)-3H-imidazol-4-yl]-ethyl}-benzenesulfonamide] and `CCn1c(C(C)NS(=O)(=O)c2ccc(Cl)c(Cl)c2)cnc1Oc1cccc(NS(C)(=O)=O)c1` (stereo not drawn) [Compound 234, 3,4-Dichloro-N-{1-[3-ethyl-2-(3-methanesulfonylaminophenoxy)-3H-imidazol-4-yl]-ethyl}-benzenesulfonamide] cannot be ordered by IC50: ≤ 70 nM for the first, ≤ 35 nM for the second.

`CCn1c(C(C)NS(=O)(=O)c2ccc(Cl)c(Cl)c2)cnc1Oc1cccc(N2CCN(C)CC2)c1` (stereo not drawn) [Compound 184, 3,4-Dichloro-N-(1-{3-ethyl-2-[3-(4-methylpiperazin-1-yl)-phenoxy]-3H-imidazol-4-yl}-ethyl)-benzenesulfonamide] was tested, and the IC50 was 14.3 nM.
